The values that follow come from PubChem BioAssay (NCI).

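Where inhibition never reached the appropriate level, the endpoint shown equals the highest concentration tested. Otherwise, values were interpolated linearly from a five-concentration, 48-hour dose response in 96-well plates. GI50 is the concentration that inhibits growth by half. The concentration for full growth arrest is given as TGI.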 Bounds are passed on as bounds.

Some test systems named below: HOP-62 NSCLC; PC-3 prostate; LOX IMVI melanoma; RPMI-8226 leukemia; M14 melanoma; SK-MEL-2 melanoma; SK-MEL-5 melanoma; MALME-3M melanoma; SF-268 CNS; SF-539 CNS.
Experiment in all cases: NCI anticancer screen, dose series, 48 h

Consider `COc1ccc2[nH]c3c4[nH]c5ccc(OC)cc5c4c4c(c3c2c1)C(=O)NC4=O`, for which the GI50 in the assay on HOP-62 NSCLC is above 25 µM; in the assay on PC-3 prostate, above 15.7 µM; with LOX IMVI melanoma, above 13.1 µM; in the assay with RPMI-8226 leukemia, 0.998 µM; in the assay with M14 melanoma, above 13.1 µM; in the assay on SK-MEL-2 melanoma, 12.2 µM. The GI50 was above 22 µM with SK-MEL-5 melanoma, 12.4 µM with MALME-3M melanoma, above 22 µM with SF-268 CNS and 1.31 µM in the assay with SF-539 CNS. The TGI in the assay with HOP-62 NSCLC, in the assay with PC-3 prostate, in the assay with LOX IMVI melanoma, in the assay with RPMI-8226 leukemia, in the assay on M14 melanoma and in the assay with SK-MEL-2 melanoma was above 25 µM throughout. The TGI in the assay on SK-MEL-5 melanoma is above 25 µM; in the assay on MALME-3M melanoma, above 25 µM; in the assay on SF-268 CNS, above 25 µM; with SF-539 CNS it was above 17 µM.
Turning to `CN1CCc2nc(N)nc(-c3nc(N)nc4c3CN(C)CC4)c2C1`, the TGI in the assay with HOP-62 NSCLC, in the assay on PC-3 prostate, in the assay with LOX IMVI melanoma, in the assay on RPMI-8226 leukemia, in the assay with M14 melanoma and in the assay with SK-MEL-2 melanoma was above 100 µM in each case. Moreover, the TGI with SK-MEL-5 melanoma, with MALME-3M melanoma, in the assay on SF-268 CNS and with SF-539 CNS was above 100 µM throughout.
As to `Nc1nc(Nc2cccnc2)sc1C(=O)c1ccccc1F`, the GI50 in the assay with HOP-62 NSCLC was 6.67 µM; in the assay with PC-3 prostate, 3.29 µM; in the assay on LOX IMVI melanoma, 2.26 µM; in the assay with RPMI-8226 leukemia, 3.06 µM; in the assay on M14 melanoma, 4.64 µM; in the assay with SK-MEL-2 melanoma it was 2.92 µM. In addition, the GI50 is 0.349 µM in the assay with SK-MEL-5 melanoma, 3.29 µM in the assay on MALME-3M melanoma, 3.24 µM with SF-268 CNS and 1.52 µM with SF-539 CNS. The TGI with HOP-62 NSCLC is above 93.8 µM; in the assay on PC-3 prostate it was above 100 µM; in the assay on LOX IMVI melanoma it was above 100 µM; in the assay on RPMI-8226 leukemia, 7.35 µM; in the assay with M14 melanoma, 20.2 µM; in the assay with SK-MEL-2 melanoma it was 9.79 µM. Further, the TGI is 3.32 µM in the assay with SK-MEL-5 melanoma, 12.4 µM in the assay with MALME-3M melanoma, 25.8 µM in the assay with SF-268 CNS and 3.88 µM in the assay with SF-539 CNS.
Regarding `CCc1nc(N)nc(N)c1-c1ccc(NC)c([N+](=O)[O-])c1`, the TGI with HOP-62 NSCLC was 37.7 µM; in the assay on PC-3 prostate it was above 100 µM; in the assay with LOX IMVI melanoma, above 100 µM; in the assay on RPMI-8226 leukemia, above 43.3 µM; in the assay with M14 melanoma, above 100 µM; with SK-MEL-2 melanoma it was above 92.5 µM. Further, the TGI is 29.1 µM in the assay on SK-MEL-5 melanoma, above 100 µM in the assay with MALME-3M melanoma, above 100 µM with SF-268 CNS and above 100 µM in the assay on SF-539 CNS.
In the case of `C/C(=N\Nc1ccc(Cl)cn1)c1ccc2ccccc2n1`, the GI50 with HOP-62 NSCLC was 2.83 µM; in the assay with PC-3 prostate it was 3.44 µM; in the assay on LOX IMVI melanoma, 2.02 µM; in the assay with RPMI-8226 leukemia, 2.05 µM; with M14 melanoma it was 2.39 µM; in the assay with SK-MEL-2 melanoma it was 6.67 µM. Further, the GI50 is 2.21 µM in the assay with MALME-3M melanoma, 2.75 µM with SF-268 CNS and 2.57 µM with SF-539 CNS. In addition, the TGI is above 100 µM in the assay with HOP-62 NSCLC; above 100 µM in the assay with PC-3 prostate; above 100 µM in the assay on LOX IMVI melanoma; above 100 µM with RPMI-8226 leukemia; 13.7 µM in the assay with M14 melanoma; above 100 µM with SK-MEL-2 melanoma. Besides, the TGI in the assay with MALME-3M melanoma was above 100 µM; in the assay with SF-268 CNS, above 100 µM; in the assay with SF-539 CNS, 27.6 µM.
For the molecule `COc1ccc(-c2cc(-c3cc(C)cc(Br)c3O)no2)cc1`, the TGI was 41.9 µM with HOP-62 NSCLC; 33.5 µM in the assay on PC-3 prostate; above 100 µM with LOX IMVI melanoma; above 100 µM in the assay on RPMI-8226 leukemia; above 100 µM in the assay on M14 melanoma; 75 µM in the assay with SK-MEL-2 melanoma. The figures for the TGI in the assay on SK-MEL-5 melanoma, in the assay on SF-268 CNS and with SF-539 CNS were 24.3 µM, 22.8 µM and 25 µM, respectively.
Take `O=c1cc(NCC(O)CN2CCCC2)n(Cc2ccccc2)c(=O)n1Cc1ccccc1` (configuration not stated): the GI50 with HOP-62 NSCLC was 18.7 µM; with PC-3 prostate it was 26.9 µM; in the assay on LOX IMVI melanoma it was 18.5 µM; in the assay with RPMI-8226 leukemia, 22.6 µM; in the assay on SK-MEL-2 melanoma, above 100 µM; in the assay with SK-MEL-5 melanoma, 17.1 µM. Besides, the GI50 was 22.6 µM in the assay on MALME-3M melanoma, 47.5 µM in the assay on SF-268 CNS and above 100 µM in the assay on SF-539 CNS. Also, the TGI with HOP-62 NSCLC was 54.4 µM; with PC-3 prostate, 84.1 µM; in the assay with LOX IMVI melanoma, 38.7 µM; in the assay with RPMI-8226 leukemia it was 46.5 µM; in the assay with SK-MEL-2 melanoma it was above 100 µM; with SK-MEL-5 melanoma, 32.2 µM. Also, the TGI in the assay on MALME-3M melanoma is 61.7 µM; with SF-268 CNS, above 100 µM; in the assay on SF-539 CNS, above 100 µM.
In the case of `CC12OC(C(=O)C13CC3)C1C(=O)c3ccc4c(ccc5ccccc54)c3C(=O)C12` (configuration not stated), the GI50 with HOP-62 NSCLC was 28.9 µM; with PC-3 prostate it was 19 µM; in the assay with M14 melanoma, 25.2 µM; in the assay with SK-MEL-2 melanoma, 53.1 µM; in the assay on MALME-3M melanoma, 14.2 µM; in the assay on SF-268 CNS it was 26.5 µM. Further, the GI50 in the assay on SF-539 CNS was 32.2 µM. Further, the TGI with HOP-62 NSCLC was 99.8 µM; in the assay with PC-3 prostate, 80.7 µM; in the assay with M14 melanoma, 95 µM; in the assay on SK-MEL-2 melanoma, above 100 µM; in the assay on MALME-3M melanoma, 56.6 µM; with SF-268 CNS it was 86.1 µM. The same molecule had a TGI in the assay with SF-539 CNS above 100 µM.
For `CCOC(=O)C1CCN(S(=O)(=O)/N=C2/NC(=O)NC2=C(Cl)Cl)CC1`, the GI50 is 0.971 µM in the assay on HOP-62 NSCLC; 0.621 µM in the assay on PC-3 prostate; 0.327 µM with RPMI-8226 leukemia; 1.82 µM with M14 melanoma; 2.37 µM in the assay on SK-MEL-2 melanoma; 1.98 µM in the assay with SK-MEL-5 melanoma. Besides, the GI50 with MALME-3M melanoma was 1.7 µM; in the assay with SF-268 CNS, 1.93 µM; in the assay on SF-539 CNS it was 0.525 µM. Besides, the TGI in the assay with HOP-62 NSCLC came to 16.5 µM; in the assay on PC-3 prostate, 2.58 µM; in the assay with RPMI-8226 leukemia, 10.1 µM; in the assay on M14 melanoma it was 3.6 µM; in the assay on SK-MEL-2 melanoma, 7.5 µM; in the assay with SK-MEL-5 melanoma, 4.26 µM. Besides, the TGI came out at 3.48 µM in the assay on MALME-3M melanoma, 7.43 µM in the assay on SF-268 CNS and 4.44 µM in the assay with SF-539 CNS.
